ChEMBL document CHEMBL1201862, “PubChem BioAssay data set” (2004)
Activity calls are given as the source filed them.

Key:
A-375 [1] = assay: MITF: Counter assay: A375 proliferation Measured in Cell-Based System Using Plate Reader - 2084-03_Inhibitor_Dose_DryPowder_Activity. [Related pubchem assays (depositor defined):AID488944]; assay type: functional; settings: Homo sapiens
[2] = HepG2 cell cytotoxicity, dose response, cytotoxicity control for non-replicating M. tuberculosis project (AID 489018); assay type: functional; settings: Mycobacterium tuberculosis
cells = assay type: functional
[3] = HPDE-C7 pancreatic duct cell viability loss – fluorescence, HTS (AID 430); assay type: functional, cell-based; settings: Homo sapiens
[4] = Vero E6 cell cytotoxicity, dose response, cytotoxicity control for non-replicating M. tuberculosis project, secondary assay (AID 492998); assay type: functional, VeroE6; settings: Vero C1008
[5] = NIH-3T3 fibroblast cytotoxicity, dose response, cytotoxicity control, cell-based, fluorescence, Alamar Blue, secondary assay (AID 2327); assay type: functional;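 further: NIH-3T3 mouse fibroblasts cultured with fluconazole at 8 µg/mL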
[6] = fluconazole-exposed Candida albicans growth modulators – fluorescence, retest, confirmation (AID 2467); assay type: functional, cell-based
[7] = THP-1 cell cytotoxicity, dose response, cytotoxicity control for non-replicating M. tuberculosis project (AID 489025); assay type: functional
A-375 [8] = assay: proliferation inhibition in MITF-low A375 cells – cell-based, cherry-pick samples, set 2, counter-screen for MITF modulator project, dose response (AID 540335); assay type: functional; settings: Homo sapiens
[9] = molecular target: T1, Microphthalmia-associated transcription factor (Homo sapiens, UniProt O75030); assay: reducers of TRPM1 reporter luminescence, concentration series – cell-based, SK-MEL-5, cherry-picked, set 3, MITF inhibitor project, dose response (AID 493073); assay type: functional;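 further: SK-MEL-5 melanoma cells with luciferase driven by the MITF target TRPM1 promoter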
T1 sequence (O75030 whole entry): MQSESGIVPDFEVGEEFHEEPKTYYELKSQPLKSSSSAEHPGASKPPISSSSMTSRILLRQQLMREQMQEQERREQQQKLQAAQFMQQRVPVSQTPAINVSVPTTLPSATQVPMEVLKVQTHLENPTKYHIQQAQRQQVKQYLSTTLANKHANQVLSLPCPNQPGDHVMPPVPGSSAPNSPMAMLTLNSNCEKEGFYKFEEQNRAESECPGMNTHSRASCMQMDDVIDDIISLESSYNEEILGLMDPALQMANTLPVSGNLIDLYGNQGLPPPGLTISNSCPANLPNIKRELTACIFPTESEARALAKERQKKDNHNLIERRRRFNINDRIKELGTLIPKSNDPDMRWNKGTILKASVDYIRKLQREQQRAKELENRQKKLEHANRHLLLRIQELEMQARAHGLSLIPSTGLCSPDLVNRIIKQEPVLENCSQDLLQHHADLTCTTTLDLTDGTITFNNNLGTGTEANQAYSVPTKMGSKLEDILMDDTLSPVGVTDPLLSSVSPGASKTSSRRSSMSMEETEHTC

[10] = viability loss of HPDE-C7K cells – cell-based, fluorescence, HTS, primary screen (AID 431); assay type: functional; settings: Homo sapiens
[11] = viability of PTEN-deleted HCT116 cells – cell-based, HCT116 PTEN knockout, dose response (AID 1047); assay type: functional;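 further: HCT116 colon tumor cells with PTEN knocked out; cells exposed to compound for 60 hours before readout; potency for loss of cell viability measured by luminescence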
[12] = reduced cellular PGC1a acetyl-lysine signal – cell-based, cherry-picked samples, dose response (AID 720514); assay type: functional;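 further: potency may reflect raised or lowered acetylation signal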
[13] = viability of HCT116 lacking mutant beta-catenin – cell-based, human colon tumor, dose response (AID 1045); assay type: functional;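 further: HCT116 colon tumor cells with beta catenin knocked out; cells exposed to compound for 60 hours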
[14] = blockers of HIV-1 ZM109 envelope-driven cell-cell fusion – HeLa effector, CEM target cells, luciferase, cherry-pick, dose response (AID 652058); assay type: functional, cell-based;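 further: luciferase signal from HIV-1 Env mediated cell-cell fusion of effector and target cells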
[15] = blockers of HIV-1 envelope-mediated cell-cell fusion – cherry-pick, dose response (AID 652057); assay type: functional, cell-based
[16] = HEK-293T viability loss, compound-treated – cell-based, uHTS hits, cytotoxicity control for B/T-cell NF-kB inhibitor project, dose response (AID 489019); assay type: functional;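 further: IC50 reflects cytotoxicity as loss of cell viability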
H4 [17] = assay: inhibitors of control reporter signal in H4 cells – cell-based, plate reader, dry powder samples, counter-screen for prion reporter project, dose response (AID 540255); assay type: functional; settings: Homo sapiens
Jurkat [18] = assay: blockers of NF-kB activation in T cells – Jurkat, luciferase reporter, luminescence, B- and T-cell, dose response (AID 489004); assay type: functional, cell-based; settings: Homo sapiens;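 further: NF-kB luciferase reporter Jurkat cells stimulated with PMA plus ionomycin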
[19] = off-target signal loss in HeLa-CEM21 co-culture – HeLa F-luc CTL cells, cherry-picked, counter-screen for HIV-1 Env fusion inhibitor project, dose response (AID 652040); assay type: functional, cell-based;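 further: potency for signal decrease marking cytotoxic or nonspecific inhibition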
[20] = HIV-1 AD8 envelope cell-cell fusion blockers – cherry-pick, dose response (AID 652062); assay type: functional, cell-based;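 further: luciferase signal from cell-cell fusion driven by HIV-1 clade B AD8 Env; potency is for inhibitors of fusion seen as a drop in luminescence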
[21] = A549 cell cytotoxicity, dose response, cytotoxicity control, plate reader, cherry-pick, antagonist series (AID 743412); assay type: functional, cell-based
H4 [22] = assay: Inhibitors of Prion Protein 5' UTR mRNA Measured in Cell-Based System Using Plate Reader - 2078-01_Inhibitor_Dose_DryPowder_Activity. [Related pubchem assays (depositor defined):AID488894]; assay type: functional; settings: Homo sapiens
[23] = blockers of bursicon-stimulated LGR2 cAMP reporter – cell-based, HEK293, CRE-luciferase reporter, cherry pick, set 2, dose response (AID 743343); assay type: functional;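 further: transfected cells were stimulated with diluted bursicon conditioned medium after compound addition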
[24] = blockade of melanocortin 4 receptor signaling – cell-based, plate reader, cherry pick, counter-screen for LGR2 antagonist project, dose response (AID 743444); assay type: functional;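 further: transfected HEK 293 cells stimulated with alpha-MSH peptide; potency of inhibitors of the alpha-MSH evoked signal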
HEK293 [25] = assay: HEK293T cell viability loss, resazurin readout – resazurin fluorescence, cytotoxicity control for NF-kB activator project, SAR follow-up (AID 493251); assay type: functional, cell-based; settings: Homo sapiens
[26] = HEK-293T cell viability reduction – luminescence, B-cell screen hits, cytotoxicity control for BCR NF-kB inhibitor project, dose response (AID 489021); assay type: functional, cell-based;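 further: HEK-293T cells carrying an NF-kB luciferase reporter; cells exposed to compound for about 14 hours before viability readout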
HEK293 [27] = assay: SAR Analysis of small molecule inhibitors of T-cell specific antigen receptor-induced NF-kB activation in a HEK-293T cell line using a luminescence assay - Set 2. [Related pubchem assays (depositor defined):AID435003, AID435012, AID489026]; assay type: functional, cell-based; settings: Homo sapiens
Jurkat [28] = assay: SAR Analysis of small molecule inhibitors of T-cell specific antigen receptor-induced NF-kB activation in a Jurkat cell line using a luminescence assay - Set 2. [Related pubchem assays (depositor defined):AID435003, AID435012, AID465]; assay type: functional, cell-based; settings: Homo sapiens
[29] = molecular target: Dual specificity tyrosine-phosphorylation-regulated kinase 1A (Rattus norvegicus, UniProt Q63470); assay type: biochemical, Homo sapiens
[30] = molecular target: Dual specificity protein kinase CLK1 (Homo sapiens, UniProt P49759); assay: inhibition of human CLK1 activity – biochemical, cherry-picked samples, selectivity assay for Dyrk1A inhibitor project, dose response (AID 588811)
Chain of Dual specificity protein kinase CLK1 (P49759 whole entry): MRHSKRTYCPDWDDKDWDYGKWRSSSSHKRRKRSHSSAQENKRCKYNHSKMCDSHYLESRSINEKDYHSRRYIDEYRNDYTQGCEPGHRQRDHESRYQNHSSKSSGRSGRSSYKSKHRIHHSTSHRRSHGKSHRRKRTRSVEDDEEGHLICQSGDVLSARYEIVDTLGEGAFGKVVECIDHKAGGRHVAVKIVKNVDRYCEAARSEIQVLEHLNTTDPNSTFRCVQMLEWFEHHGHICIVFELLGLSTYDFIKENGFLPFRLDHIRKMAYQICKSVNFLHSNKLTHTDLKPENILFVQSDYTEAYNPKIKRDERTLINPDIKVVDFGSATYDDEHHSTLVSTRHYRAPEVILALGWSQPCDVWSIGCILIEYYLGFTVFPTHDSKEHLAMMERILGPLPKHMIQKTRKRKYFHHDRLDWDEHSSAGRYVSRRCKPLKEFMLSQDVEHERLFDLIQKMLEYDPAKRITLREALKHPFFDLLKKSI

Mu-type opioid receptor = Mu-type opioid receptor (Homo sapiens, UniProt P35372); assay: (§1) Counterscreen for agonists of heterodimerization of the mu 1 (OPRM1) and delta 1 (OPRD1) opioid receptors: Luminescence-based cell-based high throughput dose response assay to identify agonists of OPRM1 homodimerization.; assay type: functional
Chain of Mu-type opioid receptor (P35372 whole entry): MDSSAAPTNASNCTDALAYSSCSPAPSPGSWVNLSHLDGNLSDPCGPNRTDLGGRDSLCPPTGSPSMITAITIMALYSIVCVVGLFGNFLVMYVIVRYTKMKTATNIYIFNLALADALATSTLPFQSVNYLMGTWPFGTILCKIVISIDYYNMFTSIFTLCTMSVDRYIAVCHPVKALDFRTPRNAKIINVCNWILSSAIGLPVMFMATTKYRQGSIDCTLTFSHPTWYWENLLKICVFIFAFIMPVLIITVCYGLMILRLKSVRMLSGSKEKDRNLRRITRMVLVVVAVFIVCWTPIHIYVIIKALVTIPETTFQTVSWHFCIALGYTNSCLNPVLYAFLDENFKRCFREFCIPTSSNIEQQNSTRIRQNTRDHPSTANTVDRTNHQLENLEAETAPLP

[31] = molecular target: 5-hydroxytryptamine receptor 5A (Homo sapiens, UniProt P47898); assay: Counterscreen for agonists of OPRM1-OPRD1 heterodimerization: luminescence-based cell-based high throughput dose response assay to identify agonists of 5-hydroxytryptamine (serotonin) 5A receptor (HTR5A). [Related pubchem assays (depositor defined):AID504326, AID504355, AID504692, AID504904, AID504905]; assay type: functional
Chain of 5-hydroxytryptamine receptor 5A (P47898 whole entry): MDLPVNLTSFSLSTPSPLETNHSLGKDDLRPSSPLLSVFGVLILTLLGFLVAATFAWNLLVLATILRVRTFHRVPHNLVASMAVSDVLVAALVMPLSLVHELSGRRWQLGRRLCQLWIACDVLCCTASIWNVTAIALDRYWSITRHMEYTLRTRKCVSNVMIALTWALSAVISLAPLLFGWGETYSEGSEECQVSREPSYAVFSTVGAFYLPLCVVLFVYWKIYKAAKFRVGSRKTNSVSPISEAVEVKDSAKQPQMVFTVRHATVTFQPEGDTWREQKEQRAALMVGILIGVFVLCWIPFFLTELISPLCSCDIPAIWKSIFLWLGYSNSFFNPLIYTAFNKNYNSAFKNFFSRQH

[32] = molecular target: Delta-type opioid receptor (Homo sapiens, UniProt P41143); assay: as §1, with “of OPRD1” for “of OPRM1”, “homodimerization. [Related pubchem assays (depositor defined):AID504326, AID504355, AID504692, AID504904, AID504905]” for “homodimerization.”; assay type: functional
Chain of Delta-type opioid receptor (P41143 whole entry): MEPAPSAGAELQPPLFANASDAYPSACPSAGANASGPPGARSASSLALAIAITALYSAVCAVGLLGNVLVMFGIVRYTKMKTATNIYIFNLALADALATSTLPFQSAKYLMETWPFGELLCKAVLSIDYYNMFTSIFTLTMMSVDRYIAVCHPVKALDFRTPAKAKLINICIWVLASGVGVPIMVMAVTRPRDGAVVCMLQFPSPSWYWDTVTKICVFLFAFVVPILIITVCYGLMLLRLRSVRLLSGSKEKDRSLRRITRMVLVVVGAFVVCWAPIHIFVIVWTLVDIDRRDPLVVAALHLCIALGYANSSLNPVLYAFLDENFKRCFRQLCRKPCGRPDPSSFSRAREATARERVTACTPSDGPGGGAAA

[33] = molecular target: T2, Short transient receptor potential channel 4 (Mus musculus, UniProt Q9QUQ5); assay: calcium entry via TRPC4 opening agents – cell-based, HEK293 TRPC4/mu-opioid, Fluo-4 calcium, dose response (AID 434937); assay type: functional
T2 sequence (Q9QUQ5 whole entry): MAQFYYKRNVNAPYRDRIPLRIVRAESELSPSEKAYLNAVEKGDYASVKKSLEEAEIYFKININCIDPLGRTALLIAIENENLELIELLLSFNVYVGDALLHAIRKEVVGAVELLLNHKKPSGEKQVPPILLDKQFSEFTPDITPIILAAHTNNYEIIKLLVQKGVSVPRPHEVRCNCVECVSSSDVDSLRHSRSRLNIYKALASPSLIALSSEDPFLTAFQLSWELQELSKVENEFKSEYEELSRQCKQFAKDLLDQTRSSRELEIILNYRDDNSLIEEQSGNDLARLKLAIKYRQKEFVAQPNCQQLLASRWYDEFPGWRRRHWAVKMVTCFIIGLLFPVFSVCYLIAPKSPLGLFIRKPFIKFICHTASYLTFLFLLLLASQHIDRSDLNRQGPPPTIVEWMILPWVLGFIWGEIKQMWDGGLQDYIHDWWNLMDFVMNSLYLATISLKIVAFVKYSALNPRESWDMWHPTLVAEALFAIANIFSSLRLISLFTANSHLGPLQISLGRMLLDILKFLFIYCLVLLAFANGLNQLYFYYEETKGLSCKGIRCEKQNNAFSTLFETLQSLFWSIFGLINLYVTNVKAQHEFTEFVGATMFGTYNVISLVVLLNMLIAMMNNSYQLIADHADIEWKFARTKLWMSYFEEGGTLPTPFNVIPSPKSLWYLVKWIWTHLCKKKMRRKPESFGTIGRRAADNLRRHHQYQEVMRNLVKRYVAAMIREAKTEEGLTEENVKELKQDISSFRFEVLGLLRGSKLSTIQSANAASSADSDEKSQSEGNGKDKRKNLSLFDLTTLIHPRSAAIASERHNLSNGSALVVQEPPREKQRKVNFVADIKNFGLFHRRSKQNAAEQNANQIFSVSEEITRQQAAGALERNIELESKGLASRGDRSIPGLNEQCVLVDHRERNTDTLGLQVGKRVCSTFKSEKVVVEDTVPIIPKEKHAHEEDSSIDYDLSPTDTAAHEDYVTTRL

[34] = molecular target: Opioid receptors; mu & delta (Homo sapiens, UniProt P41143+P35372); assay: OPRM1-OPRD1 heterodimer agonist potency – cell-based, luminescence, dose response (AID 588407); assay type: functional
DNA topoisomerase = DNA topoisomerase (Yersinia pestis, UniProt A0A2S9PM60); assay: Yersinia topoisomerase I cleavage product accumulation – biochemical, cherry-pick, dose response (AID 588525)
Chain of DNA topoisomerase (A0A2S9PM60 whole entry): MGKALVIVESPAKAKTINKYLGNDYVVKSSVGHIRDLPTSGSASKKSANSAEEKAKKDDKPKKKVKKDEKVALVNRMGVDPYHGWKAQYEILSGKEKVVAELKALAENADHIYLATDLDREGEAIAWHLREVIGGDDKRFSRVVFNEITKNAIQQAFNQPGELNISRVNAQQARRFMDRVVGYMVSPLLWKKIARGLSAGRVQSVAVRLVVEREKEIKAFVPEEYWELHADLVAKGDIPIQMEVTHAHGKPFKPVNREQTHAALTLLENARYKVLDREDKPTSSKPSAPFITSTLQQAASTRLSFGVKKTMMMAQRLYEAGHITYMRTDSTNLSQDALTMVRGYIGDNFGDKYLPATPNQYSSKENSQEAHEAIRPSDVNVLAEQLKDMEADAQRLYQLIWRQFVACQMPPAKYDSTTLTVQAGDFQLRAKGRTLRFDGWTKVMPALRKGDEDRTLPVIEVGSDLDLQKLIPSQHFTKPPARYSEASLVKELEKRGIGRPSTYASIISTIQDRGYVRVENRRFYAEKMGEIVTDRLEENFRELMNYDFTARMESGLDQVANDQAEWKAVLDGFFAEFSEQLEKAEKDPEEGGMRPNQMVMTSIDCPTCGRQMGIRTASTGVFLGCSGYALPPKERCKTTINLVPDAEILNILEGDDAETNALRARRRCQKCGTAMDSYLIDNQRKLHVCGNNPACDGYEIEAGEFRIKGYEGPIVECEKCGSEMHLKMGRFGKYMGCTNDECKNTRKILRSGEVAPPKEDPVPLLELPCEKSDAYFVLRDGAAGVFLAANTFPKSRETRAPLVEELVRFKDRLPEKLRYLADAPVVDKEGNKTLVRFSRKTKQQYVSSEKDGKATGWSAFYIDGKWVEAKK

COc1ccc(C(=O)C(CN2CCCC2)c2ccccc2)cc1 (stereo not drawn)
AC50 (A-375 [1]): > 35 µM (active) | CC50 [2]: 17.3 µM (active) | IC50 (cells): 16.5 µM (active) | EC50 [3]: 4.54 µM (active) | CC50 [4]: 11.6 µM (active) | EC50 [5]: 59.6 µM (active) | EC50 [6]: 2.13 µM (active) | CC50 [7]: 7.27 µM (active) | AC50 (A-375 [8]): > 35 µM (active) | AC50 [9]: 9.13 µM (active) | EC50 [10]: 6.46 µM (active) | EC50 [11]: 2.44 µM (active) | AC50 [12]: 10.5 µM (active) | EC50 [13]: 1.83 µM (active)

COc1cccc(NC(=O)Nc2cccc(C(=O)O)c2)c1
AC50 [14]: 7.32 µM (active) | AC50 [15]: 1.8 µM (active) | IC50 [16]: > 80 µM (inactive) | AC50 (H4 [17]): 3.95 µM (active) | IC50 (Jurkat [18]): 1.9 µM (active) | AC50 [19]: 2.11 µM (active) | AC50 [20]: 3.29 µM (active) | AC50 [9]: 2.37 µM (active) | AC50 [21]: > 52 µM (inactive) | AC50 (H4 [22]): 0.915 µM (active) | AC50 [23]: 1.56 µM (active) | AC50 [24]: 2.35 µM (active)

O=C(Nc1nc2c(Br)cc(Br)cc2c(=O)s1)c1ccco1
IC50 (HEK293 [25]): > 80 µM (inactive) | IC50 [26]: > 80 µM (inactive) | IC50 (HEK293 [27]): > 80 µM (inactive) | IC50 (Jurkat [28]): 6.7 µM (active)

COc1cccc(Nc2ncnc3sc(C)cc23)c1
AC50 [29]: 3.81 µM (active) | AC50 [30]: 5.47 µM (active)

COc1ccccc1N1CCN(C(c2cccs2)C(C)NC(=O)c2ccco2)CC1 (stereo not drawn)
EC50 (Mu-type opioid receptor): 50.3 µM (inactive) | EC50 [31]: > 92.5 µM (inactive) | EC50 [32]: > 92.5 µM (inactive) | EC50 [33]: 0.084 µM (active) | EC50 [34]: > 3.425 µM

CC(C)CC1NC(=O)c2cc3ccccc3cc2-n2c1nc1cc(Cl)ccc1c2=O (stereo not drawn)
AC50 (DNA topoisomerase): 10.2 µM (active)
